According to paper PMC7022718, “Composition and Insecticidal Activity of Essential Oil of Bacopa caroliniana and Interactive Effects of Individual Compounds on the Activity” (Insects, 2019):

Tested on: T1, acetylcholine esterase (AChE), crude, from rice weevil
T1 construct: gene ace1; native, unpurified; supernatant of whole adult homogenate in phosphate buffer pH 7.4 (8775 g, 20 min)
Experiment: Ellman colorimetric assay, […] nm
Assay type: biochemical, Sitophilus oryzae
Conditions: crude enzyme; acetylthiocholine iodide 2.5 mM, pH 7.4, 35 °C, 15 min preincubation, compound in ethanol

| Structure (SMILES) | AChE-IC50 (μL mL^-1) |
| --- | --- |
| Cc1ccc(C(C)C)cc1 [p-Cymene] | > 500 µL mL^−1 |
| C=C1CC[C@H]2O[C@]2(C)CC[C@@H]2[C@@H]1CC2(C)C [Caryophyllene oxide] | > 500 µL mL^−1 |
| CC1=CC=C(C(C)C)CC1 [α-Terpinene] | > 500 µL mL^−1 |
| C=CC(O)CCCCC (stereo not drawn) [1-Octen-3-ol] | 14.82 ± 0.12 µL mL^−1 |
| CC(C)=CCCC(C)CCO (stereo not drawn) [Citronellol] | 86.08 ± 1.09 µL mL^−1 |
| CC12CCC(CC1)C(C)(C)O2 [1,8-Cineole] | 31.13 ± 2.20 µL mL^−1 |
| C=CC(=C)CCC=C(C)C [β-Myrcene] | > 500 µL mL^−1 |
| C=C1CC/C=C(\C)CC[C@@H]2[C@@H]1CC2(C)C [β-Caryophyllene] | > 500 µL mL^−1 |
| CC1=CCC(C(C)C)=CC1 [γ-Terpinene] | > 500 µL mL^−1 |
| C=C1CCC2CC1C2(C)C (stereo not drawn) [β-Pinene] | > 500 µL mL^−1 |
| CC1=CCC(O)(C(C)C)CC1 (stereo not drawn) [4-Terpineol] | 11.29 ± 0.02 µL mL^−1 |
| CC1=CCC2CC1C2(C)C (stereo not drawn) [α-Pinene] | 1.81 ± 0.20 µL mL^−1 |
| CC1=CCC(=C(C)C)CC1 [α-Terpinolene] | 1.10 ± 0.17 µL mL^−1 |
| CC1=CCC(C(C)(C)O)CC1 (stereo not drawn) [α-Terpineol] | 18.39 ± 1.52 µL mL^−1 |
| C=C(C)C1CC=C(C)CC1 (stereo not drawn) [Limonene] | 9.57 ± 1.37 µL mL^−1 |
| C=C1CCC2(C(C)C)CC12 (stereo not drawn) [Sabinene] | 85.03 ± 0.20 µL mL^−1 |
| C=CC(C)(O)CCC=C(C)CCC=C(C)C (stereo not drawn) [Nerolidol] | 331.24±21.55 µL mL^−1 |
| C=CC(C)(O)CCC=C(C)C (stereo not drawn) [Linalool] | 44.33 ± 1.31 µL mL^−1 |
